Earlier results on one molecule are cited in patent US20080176893A1, “Formulation of a Thienopyridine Platelet Aggregation Inhibitor” (ELI LILLY AND COMPANY, priority 2005, published 2008).

For the molecule `CC(=O)Oc1cc2c(s1)CCN(C(C(=O)C1CC1)c1ccccc1F)C2.Cl` (stereo not drawn) [Prasugrel, 2-Acetoxy-5-(α-cycloprpylcarbonyl-2-fluorobenzyl)-4,5,6,7-tetrahydrothieno[3,2-c]pyridine], the “degradation on prolonged exposure to air and moisture” value is “some degradation”.
